Assays:
[1] = Solid stability test (crystalline form by XRPD); type: physicochemical
Description: According to the “Guidelines for Stability Test of Raw Materials and Preparations” (General Principles 9001 of Part Four of Chinese Pharmacopoeia 2015 Edition), crystalline form E of the compound represented by formula (I) was investigated for stability at high temperature (60° C., open), high humidity (room temperature/relative humidity 92.5%, open) and strong light (5000 lx, closed).
About 10 mg of compound represented by formula (I) was accurately weighed out, placed in a dry and clean glass bottle, spread out into a thin layer and covered with aluminum foil with small holes under the influence factor test conditions (60° C., 92.5% RH) and accelerated conditions (40° C./75% RH and 60° C./75% RH). The samples placed under the condition of light (visible light 1200000 Lux, ultraviolet 200 W) were in transparent glass bottles, with one group fully exposed and the other fully packaged with aluminum foil. Samples in duplicate were placed under each condition at each time point, and the samples for XRPD detection were placed separately. Samples placed under different conditions were sampled for XRPD detection at the planned test end point, and the test results were compared with the initial test results at Day 0.

[2] = Hygroscopicity study by dynamic vapor sorption (DVS); type: physicochemical; details: 25° C. and 80% RH
Description: Dynamic Vapor Sorption (DVS) Method of the Present Disclosure
Instrument model: SMS DVS intrinsic dynamic moisture adsorption instrument
Test conditions: 10 mg of the sample was weighed out and placed in a DVS sample tray for testing.
The detailed DVS parameters were as follows:
RH (%) test gradient range: 0%-95%-0%
The hygroscopicity evaluation is classified as follows:
SMS DVS intrinsic Dynamic Vapor Sorption Instrument

[3] = Solid stability test (crystalline form by XRPD); type: physicochemical; details: Light (total illuminance = 1.2 × 10^6 Lux, Near UV = 200 w · hr/m^2, open)
IDH1 wt (wild type) = IDH1 wt (wild type) (Homo sapiens, UniProt O75874); test: IDH1 enzyme activity test in vitro (IDH1 wild type); type: biochemical
Chain of IDH1 wt (wild type) (O75874 whole entry): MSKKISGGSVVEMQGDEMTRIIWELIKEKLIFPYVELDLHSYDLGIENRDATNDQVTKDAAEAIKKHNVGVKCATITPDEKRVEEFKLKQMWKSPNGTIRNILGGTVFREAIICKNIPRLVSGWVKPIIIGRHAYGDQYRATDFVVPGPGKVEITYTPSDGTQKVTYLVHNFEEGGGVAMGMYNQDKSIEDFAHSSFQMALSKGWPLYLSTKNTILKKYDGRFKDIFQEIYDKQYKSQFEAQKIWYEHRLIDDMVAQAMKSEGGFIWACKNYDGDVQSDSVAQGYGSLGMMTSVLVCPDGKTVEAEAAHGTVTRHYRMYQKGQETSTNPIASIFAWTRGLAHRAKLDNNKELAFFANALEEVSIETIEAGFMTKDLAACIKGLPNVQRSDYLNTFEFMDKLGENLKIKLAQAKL
Description: (§1) IDH1 mutant catalyzes the NADPH-dependent reduction of α-KG (α-ketoglutaric acid) to 2-HG (2-hydroxyglutaric acid), and the consumed NADPH can be read out by fluorescence.
(§2) Basic reaction buffer: 50 mM KH2PO4, pH 7.5, 10 mM […], 10% glycerol, 150 mM NaCl, 0.05% BSA (bovine serum albumin), 2 mM b-ME (2-mercaptoethanol), 0.003% Brij35 (oxyethylene lauryl ether)
(§3) Substrates and cCofactors:
IDH1 wt (wild type): 65 μM isocitrate ±50 μM NADP
(§4) 1.33× enzyme (no control wells), buffer and NADP or NADPH (control wells) were added to the wells of a reaction plate. The compounds to be tested were dissolved in 100% DMSO, then added to the enzyme mixture (Echo550, nanoliter level) and incubated for 60 min after brief centrifugation. A mixture of 4× substrate and cofactor was added to start the reaction, briefly centrifuged, shaken, and incubated at room temperature for 45 min. A mixture of 3× lipoamide dehydrogenase and resazurin was prepared, added to the reaction solution to test the amount of the generated or remaining NADPH, incubated at room temperature for 10 min after simple centrifugation, and measured using a multifunctional microplate reader Envision (Ex/Em±535/590 nm).

U87MG IDH1-R132H = molecular target: T1, U87MG IDH1-R132H (Homo sapiens, UniProt O75874, R132H); test: IDH1 cytological activity test, 2HG content in cell culture supernatant by LC-MS; type: cell-based
T1 construct: expressed in transfected cells; host or cells: U87MG
T1 sequence (O75874 whole entry R132H): as the sequence (O75874 whole entry) above, with R132H counted along it
Description: In this study, after co-incubating the compound with IDH1 mutant cell lines, the 2HG content in the cell culture supernatant was detected by LC-MS to determine the inhibitory activity of the compound on IDH1 mutants. IDH1 catalyzes the reduction of isocitrate to α-ketoglutaric acid (α-KG) in vivo, while IDH1 mutants further catalyze the reduction of α-KG to 2-hydroxyglutaric acid (2HG).
U87MG-IDH1-R132H cell line is a stable transfected cell line that can stably express IDH1-R132H mutant by transfecting U87MG cells with IDH1-R132H, and HT1080 cell line contains endogenous IDH1-R132C mutant.
The experimental process is as follows:
1) The compound was 3-fold serially diluted with DMSO and added to a cell culture plate, with a total of 10 concentrations, each concentration in duplicate. Negative control wells contained DMSO only, and positive control wells contained BAY1436032 at a final concentration of 5 μM. The final concentration of DMSO in all wells was 0.5%.
2) The IDH1 mutant cell line was seeded into the compound-containing cell culture plate at a density of 40,000 cells/well. Cells were co-incubated with compounds for 3 days in a 37° C., 5% CO2 incubator.
3) After 3 days, 10 μl of cell culture supernatant was taken, diluted 21 times with 200 μl of ddH2O to 210 μl and mixed well. […]

IDH1 (R132H) = IDH1 (R132H) (Homo sapiens, UniProt O75874, R132H); test: IDH1 enzyme activity test in vitro (IDH1 R132H); type: biochemical
Chain of IDH1 (R132H) (O75874 whole entry R132H): as the sequence (O75874 whole entry) above, with R132H counted along it
Description: as §1, §2, §3, §4

IDH1 (R132C) = IDH1 (R132C) (Homo sapiens, UniProt O75874, R132C); test: IDH1 enzyme activity test in vitro (IDH1 R132C); type: biochemical
Chain of IDH1 (R132C) (O75874 whole entry R132C): as the sequence (O75874 whole entry) above, with R132C counted along it
Description: as §1, §2, §3, §4

[4] = Pharmacokinetic evaluation in mice; design: species or system CD-1 mice; details: mouse, in vivo
Description: The pharmacokinetic parameters of the compound represented by formula (I) were detected in mice.
1) Experimental drug: compound represented by formula (I);
2) Experimental animals: 8 male CD-1 mice aged 7-10 weeks, divided into 2 groups, 4 mice in each group;
3) Drug preparation: for the tail vein injection group, an appropriate amount of the drug was weighed out and dissolved in a mixed solvent of DMSO: 20% hydroxypropyl beta-cyclodextrin (HPbCD)±10:90 to prepare a solution of 0.5 mg/mL; for the gavage administration group, an appropriate amount of the drug was weighed out and dissolved in a mixed solvent of DMSO: polyoxyethylene castor oil EL (Cremophor EL): 5% sulfobutylcyclodextrin (Captisol)±5:10:85 to prepare into a suspension.
Animals in group 1 were given a single dose of 1 mg/kg drug at a concentration of 0.5 mg/mL via tail vein injection, and animals in group 2 were given the compound at a dose of 20 mg/kg at a concentration of 2 mg/mL by gavage. Animals were cross-collected for plasma samples at 0.0833 (the tail vein injection group only), 0.25, 0.5, 1, 2, 4, 6, 8 and 24 h after administration. The drug concentration in the plasma samples was determined by LC-MS/MS method, and the kinetic parameters of the tested drugs were obtained in Table 11: […]

O=C(O)CCc1ccc2c(c1)nc(Nc1ccc(OC(F)(F)F)cc1)n2[C@@H]1CCCc2ccccc21
Crystalline form ([1]; 0 days (initial)): Crystalline form B | Crystalline form ([1]; 25° C./92.5% RH, open, 5 days): Crystalline form B | Crystalline form ([1]; 25° C./92.5% RH, open, 10 days): Crystalline form B | Crystalline form ([1]; 40° C./75% RH, open, 1 month): Crystalline form B | Crystalline form ([1]; 40° C./75% RH, open, 2 months): Crystalline form B | Crystalline form ([1]; 40° C./75% RH, open, 3 months): Crystalline form B | Crystalline form ([1]; 60° C., open, 5 days): Crystalline form B | Crystalline form ([1]; 60° C., open, 10 days): Crystalline form B | Crystalline form ([1]; 60° C./75% RH, open, 1 month): Crystalline form B | Crystalline form ([1]; 60° C./75% RH, open, 2 months): Crystalline form B | Hygroscopic classification [2]: non-hygroscopic | hygroscopic weight gain ΔW [2]: 0.09% | Crystalline form ([3]; 5 days): Crystalline form B | Crystalline form ([3]; 10 days): Crystalline form B

O=C(O)CCc1ccc2c(c1)nc(Nc1ccc(OC(F)(F)F)cc1)n2[C@@H]1CCCc2ccccc21 [Compound represented by formula (I)]
inhibitory effect on wild-type IDH protein (IDH1 wt (wild type)): no inhibitory effect | 2-HG inhibitory effect on U87MG glioma cells with IDH1R132H mutation (U87MG IDH1-R132H): good 2-HG inhibitory effect | IC50 (U87MG IDH1-R132H; 2-HG inhibition, cells co-incubated with compound for 3 days): 38.2 nM | inhibitory effect on mutant IDH1R132H at the enzymatic level (IDH1 (R132H)): good inhibitory effect | inhibitory effect on mutant IDH1R132C at the enzymatic level (IDH1 (R132C)): good inhibitory effect | pharmacokinetic properties in mice [4]: good pharmacokinetic properties
